Read-outs that look alike come from different tables or passages of the source.
Experiments:
Assay type in all cases: cell-based
5HT2A sensor [1] = test: 5HT2A sensor assay, agonist mode (sLight1.3s HEK293T stable line); details: percent relative to 5-HT at 100 uM; for 5HT2A Agonist mean @ 100 nM (%): 100 nM compound; for 5HT2A Agonist mean @ 10 μM (%): 10 μM compound; for 5HT2A Agonist mean @ 100 μM (%): 100 μM compound
Procedure: In some embodiments, hallucinogenic potential of a compound of the present invention is determined in vitro. In some embodiments, hallucinogenic potential of a compound of the present invention is determined using a 5HT2A sensor assay. In some embodiments, the 5HT2A sensor assay is in an agonist mode or an antagonist mode. In some embodiments, the 5HT2A sensor assay is in an agonist mode.
(§1) 5HT2A Sensor Assays. HEK293T (ATCC) 5HT2A sensor stable line (sLight1.3s) was generated via lentiviral transduction of HIV-EF1α-sLight1.3 and propagated from a single colony. Lentivirus was produced using 2nd generation lentiviral plasmids pHIV-EF1α-sLight1.3, pHCMV-G, and pCMV-deltaR8.2.
(§2) For the screening of the 41 compounds, sLight1.3s cells were plated in 96-well plates at a density of 40000 24-hours prior to imaging. On the day of imaging, compounds solubilized in DMSO were diluted from the 100 mM stock solution to working concentrations of 1 mM, 100 μM and 1 μM with a DMSO concentration of 1%. Immediately prior to imaging, cells growing in DMEM (Gibco) were washed 2× with HBSS (Gibco) and in agonist mode 180 μL of HBSS or in antagonist mode 160 μL of HBSS was added to each well after the final wash. For agonist mode, images were taken before and after the addition of the 20 μL compound working solution into the wells containing 180 μL HBSS. This produced final compound concentrations of 100 μM, 10 μM and 100 nM with a DMSO concentration of 0.1%. For antagonist mode, images were taken before and after addition of 20 μL of 900 nM 5-HT and again after 20 μL of the compound working solutions to produce final concentrations of 100 nM for 5HT and 100 μM, 10 μM and 100 nM for the compounds with a DMSO concentration of 0.1%. Each compound was tested in triplicates (3 wells) for each concentration (100 μM, 10 μM and 100 nM). Additionally, within each plate, 100 nM 5HT and 0.1% DMSO controls were also imaged.
(§3) Imaging was performed using the Leica DMi8 inverted microscope with a 40× objective using the FITC preset with an excitation of 460 nm and emission of 512-542 nm. For each well, the cellular membrane where the 5HT2A sensor is targeted was autofocused using the adaptive focus controls and 5 images from different regions within the well were taken with each image processed from a 2×2 binning.
(§4) For data processing, the membranes from each image was segmented and analyzed using a custom algorithm written in MATLAB producing a single raw fluorescence intensity value. For each well the 5 raw fluorescence intensity values generated from the 5 images were averaged and the change in fluorescence intensity (dFF) was calculated as: dFF=(Fsat−Fapo)/Fapo
(§5) For both agonist and antagonist modes, the fluorescence intensity values before compound addition in HBSS only were used as the Fapo values while the fluorescence intensity values after compound addition were used as the Fsat values.
(§6) For agonist mode, data are as percent activation relative to 5HT, where 0 is the average of the DMSO wells and 100 is the average of the 100 uM 5HT wells. For antagonist mode, the inactivation score was calculated as: Inactivation score=(dFFF(Compound+5HT)−dFF(5HT))/dFF(5HT)

5HT2A sensor [2] = test: 5HT2A sensor assay, antagonist mode (sLight1.3s HEK293T stable line); details: relative to 5-HT at 100 nM; for 5HT2A Antagonist mean @ 100 nM (%): 100 nM compound; for 5HT2A Antagonist mean @ 10 μM (%): 10 μM compound; for 5HT2A Antagonist mean @ 100 μM (%): 100 μM compound
Procedure: In some embodiments, the 5HT2A sensor assay is in an antagonist mode.
as §1, §2, §3, §4, §5, §6

5HT2A = target: T1, 5HT2A (Homo sapiens, UniProt P28223); test: Calcium flux assay (Calcium secondary messenger pathway); details: agonist mode
T1 construct: expressed in transfected cells
T1 sequence (P28223 whole entry): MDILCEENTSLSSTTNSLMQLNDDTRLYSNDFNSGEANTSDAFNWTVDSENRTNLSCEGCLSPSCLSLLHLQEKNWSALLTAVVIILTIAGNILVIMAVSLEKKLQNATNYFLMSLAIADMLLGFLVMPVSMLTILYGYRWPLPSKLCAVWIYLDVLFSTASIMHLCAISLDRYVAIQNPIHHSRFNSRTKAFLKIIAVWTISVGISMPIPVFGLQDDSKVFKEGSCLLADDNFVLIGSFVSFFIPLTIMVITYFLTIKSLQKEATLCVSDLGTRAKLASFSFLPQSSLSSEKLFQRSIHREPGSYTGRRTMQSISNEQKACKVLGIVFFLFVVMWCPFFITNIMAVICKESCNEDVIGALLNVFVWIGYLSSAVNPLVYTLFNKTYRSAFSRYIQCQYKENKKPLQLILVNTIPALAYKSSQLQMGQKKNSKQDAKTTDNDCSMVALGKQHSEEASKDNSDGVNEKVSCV
Text: Calcium Flux Assay. Calcium Secondary Messenger Pathway. The Calcium No Wash^PLUS assay monitors the activation of a GPCR (e.g., 5HT2A) via Gq secondary messenger signaling in a live cell, non-imaging assay format. Calcium mobilization in PathHunter® cell lines or other cell lines stably expressing Gq-coupled GPCRs (e.g., 5HT2A) is monitored using a calcium-sensitive dye that is loaded into cells. GPCR (e.g., 5HT2A) activation by a compound results in the release of calcium from intracellular stores and an increase in dye fluorescence that is measured in real-time. In some embodiments, the ability of a compound of the present invention to modulate 5-HT2A function is determined using a calcium flux assay. In some embodiments, a compound of the present invention activates a calcium flux assay.
Calcium Secondary Messenger Pathway. Cell lines were expanded from freezer stocks according to standard procedures. Cells were seeded in a total volume of 20 μL into black-walled, clear-bottom, Poly-D-lysine coated 384-well microplates and incubated at 37° C. for the appropriate time prior to testing. Assays were performed in 1× Dye Loading Buffer consisting of 1× Dye, 1× Additive A and 2.5 mM Probenecid in HBSS/20 mM Hepes. Probenicid was prepared fresh. Cells were loaded with dye prior to testing. Media was aspirated from cells and replaced with 20 μL Dye Loading Buffer. Cells were incubated for 30-60 minutes at 37° C.
For agonist determination, cells were incubated with sample to induce response. After dye loading, cells were removed from the incubator and 10 μL HBSS/20 mM Hepes was added. 3× vehicle was included in the buffer when performing agonist dose curves to define the EC80 for subsequent antagonist assays. Cells were incubated for 30 minutes at room temperature in the dark to equilibrate plate temperature. Intermediate dilution of sample stocks was performed to generate 4× sample in assay buffer. Compound agonist activity was measured on a FLIPR Tetra (MDS). Calcium mobilization was monitored for 2 minutes and 10 μL 4× sample in HBSS/20 mM Hepes was added to the cells 5 seconds into the assay.
Compound activity was analyzed using CBIS data analysis suite (ChemInnovation, CA). For agonist mode assays, percentage activity is calculated using the following formula: % Activity=100%×(mean RFU of test sample−mean RFU of vehicle control)/(mean MAX RFU control ligand−mean RFU of vehicle control).

rat cortical neurons = test: Neurite outgrowth assay; details: Cortical neurone, 1 hour treatment at DIV 4, analysed DIV 7, fold vs DMSO control
Text: Neurite outgrowth assay. Changes in the pattern of neurite outgrowth have been implicated in neurodegenerative disorders as well as traumatic injuries. The discovery of new compounds that can positively affect neuritogenesis are important for developing new therapeutics for neurological diseases. Measurement of neurite outgrowth of rat cortical neurons using an automated image-based assay was used to determine the neuroplastic effects of the compounds of the present invention. In some embodiments, a compound of the present invention increases the pattern of neurite outgrowth. In some embodiments, a compound of the present invention increases neurite average length compared to a control. In some embodiments, a compound of the present invention increases neurite branch points compared to a control. In some embodiments, a compound of the present invention increases neurite average length and neurite branch points compared to a control.
Neurite Outgrowth Assay. Rat cortical neurons (20,000 cells/well) were freshly isolated from embryonic day 18 rats and cultured in Neurobasal Medium (+B27). The cultured cells were plated in 96 well-plates (avoiding external wells). At DIV 4, the neurons were treated with compound or control (10 μM) for 1 hour followed by complete washout of the compound. At DIV 7, the neurons were analyzed. The experiments were performed in triplicate. Neurite outgrowth was measured analyzing the following parameters: Number of Cell Bodies, total neurite length (pixels), Root Count, Segments, Extremities Count and node points. Changes in the pattern of neurite outgrowth of the neurons were analyzed by immunocytochemistry against β-III-tubulin. Pictures were acquired by the CellInsight CX7 from Thermo Fisher and analyzed using its software. Results generated in the equipment were maximum neurite length, extremity count, root count, dendrite branch points, and total neurite length. The results were compared to DMSO control, representing the fold-change in neuronal outgrowth.

[3] = read-out: Neurite Average Length @ 10 μM
[4] = read-out: Neurite Branch Points: @ 10 μM

SMILES: COc1ccc2c(ccn2CCN2CCOCC2)c1 [Example 46, 4-(2-(5-methoxy-1H-indol-1-yl)ethyl)morpholine]
- 5HT2A Agonist mean @ 100 nM (%) (5HT2A sensor [1]): B (does not activate 5HT2A sensor assay in agonist mode)
- 5HT2A Agonist mean @ 10 μM (%) (5HT2A sensor [1]): B (does not activate 5HT2A sensor assay in agonist mode)
- 5HT2A Agonist mean @ 100 μM (%) (5HT2A sensor [1]): B (does not activate 5HT2A sensor assay in agonist mode)
- 5HT2A Antagonist mean @ 100 nM (%) (5HT2A sensor [2]): A (inhibits 5HT response by >100%)
- 5HT2A Antagonist mean @ 10 μM (%) (5HT2A sensor [2]): A (inhibits 5HT response by >100%)
- 5HT2A Antagonist mean @ 100 μM (%) (5HT2A sensor [2]): A (inhibits 5HT response by >100%)
- EC50 (5HT2A): > 10 µM
- fold induction at 10 µM (rat cortical neurons; [3]): 1.5 to 3
- fold induction at 10 µM (rat cortical neurons; [4]): 1.5 to 3

SMILES: Clc1ccc2c(ccn2CCN2CCCC2)c1 [Example 47, 5-chloro-1-(2-(pyrrolidin-1-yl)ethyl)-1H-indole]
- 5HT2A Agonist mean @ 100 nM (%) (5HT2A sensor [1]): B (does not activate 5HT2A sensor assay in agonist mode)
- 5HT2A Agonist mean @ 10 μM (%) (5HT2A sensor [1]): B (does not activate 5HT2A sensor assay in agonist mode)
- 5HT2A Agonist mean @ 100 μM (%) (5HT2A sensor [1]): B (does not activate 5HT2A sensor assay in agonist mode)
- 5HT2A Antagonist mean @ 100 nM (%) (5HT2A sensor [2]): A (inhibits 5HT response by >100%)
- 5HT2A Antagonist mean @ 10 μM (%) (5HT2A sensor [2]): A (inhibits 5HT response by >100%)
- 5HT2A Antagonist mean @ 100 μM (%) (5HT2A sensor [2]): A (inhibits 5HT response by >100%)
- EC50 (5HT2A): < 10 µM
- fold induction at 10 µM (rat cortical neurons; [3]): 1.5 to 3
- fold induction at 10 µM (rat cortical neurons; [4]): > 3

SMILES: Clc1ccc2c(ccn2CCN2CCCCC2)c1 [Example 48, 5-chloro-1-(2-(piperidin-1-yl)ethyl)-1H-indole]
- 5HT2A Agonist mean @ 100 nM (%) (5HT2A sensor [1]): B (does not activate 5HT2A sensor assay in agonist mode)
- 5HT2A Agonist mean @ 10 μM (%) (5HT2A sensor [1]): B (does not activate 5HT2A sensor assay in agonist mode)
- 5HT2A Agonist mean @ 100 μM (%) (5HT2A sensor [1]): B (does not activate 5HT2A sensor assay in agonist mode)
- 5HT2A Antagonist mean @ 100 nM (%) (5HT2A sensor [2]): A (inhibits 5HT response by >100%)
- 5HT2A Antagonist mean @ 10 μM (%) (5HT2A sensor [2]): A (inhibits 5HT response by >100%)
- 5HT2A Antagonist mean @ 100 μM (%) (5HT2A sensor [2]): A (inhibits 5HT response by >100%)
- EC50 (5HT2A): > 10 µM
- fold induction at 10 µM (rat cortical neurons; [3]): 1.5 to 3
- fold induction at 10 µM (rat cortical neurons; [4]): 1.5 to 3

SMILES: Clc1ccc2c(ccn2CCN2CCOCC2)c1 [Example 49, 4-(2-(5-chloro-1H-indol-1-yl)ethyl)morpholine]
- 5HT2A Agonist mean @ 100 nM (%) (5HT2A sensor [1]): B (does not activate 5HT2A sensor assay in agonist mode)
- 5HT2A Agonist mean @ 10 μM (%) (5HT2A sensor [1]): B (does not activate 5HT2A sensor assay in agonist mode)
- 5HT2A Agonist mean @ 100 μM (%) (5HT2A sensor [1]): A (activates 5HT2A sensor assay in agonist mode)
- 5HT2A Antagonist mean @ 100 nM (%) (5HT2A sensor [2]): A (inhibits 5HT response by >100%)
- 5HT2A Antagonist mean @ 10 μM (%) (5HT2A sensor [2]): B (inhibits 5HT response by 75% to 100%)
- 5HT2A Antagonist mean @ 100 μM (%) (5HT2A sensor [2]): C (inhibits 5HT response by <75%)
- EC50 (5HT2A): > 10 µM
- fold induction at 10 µM (rat cortical neurons; [3]): 1.5 to 3
- fold induction at 10 µM (rat cortical neurons; [4]): 1.5 to 3

SMILES: FC(F)(F)Oc1ccc2c(ccn2CCN2CCCC2)c1 [Example 50, 1-(2-(pyrrolidin-1-yl)ethyl)-5-(trifluoromethoxy)-1H-indole]
- 5HT2A Agonist mean @ 100 nM (%) (5HT2A sensor [1]): B (does not activate 5HT2A sensor assay in agonist mode)
- 5HT2A Agonist mean @ 10 μM (%) (5HT2A sensor [1]): B (does not activate 5HT2A sensor assay in agonist mode)
- 5HT2A Agonist mean @ 100 μM (%) (5HT2A sensor [1]): A (activates 5HT2A sensor assay in agonist mode)
- 5HT2A Antagonist mean @ 100 nM (%) (5HT2A sensor [2]): A (inhibits 5HT response by >100%)
- 5HT2A Antagonist mean @ 10 μM (%) (5HT2A sensor [2]): B (inhibits 5HT response by 75% to 100%)
- 5HT2A Antagonist mean @ 100 μM (%) (5HT2A sensor [2]): A (inhibits 5HT response by >100%)
- EC50 (5HT2A): > 10 µM
- fold induction at 10 µM (rat cortical neurons; [3]): 1.5 to 3
- fold induction at 10 µM (rat cortical neurons; [4]): 1.5 to 3

— patent US11254640B2, “N-substituted indoles and other heterocycles for treating brain disorders” (The Regents of the University of California, priority 2019, dated 2022)
